Measured values reported in patent US10961231B2, “NTCP inhibitors” (National Institute of Biological Sciences, Beijing, priority 2018, dated 2021).

Target: T1, NTCP (Homo sapiens, UniProt Q14973)
T1 sequence (Q14973 1-349): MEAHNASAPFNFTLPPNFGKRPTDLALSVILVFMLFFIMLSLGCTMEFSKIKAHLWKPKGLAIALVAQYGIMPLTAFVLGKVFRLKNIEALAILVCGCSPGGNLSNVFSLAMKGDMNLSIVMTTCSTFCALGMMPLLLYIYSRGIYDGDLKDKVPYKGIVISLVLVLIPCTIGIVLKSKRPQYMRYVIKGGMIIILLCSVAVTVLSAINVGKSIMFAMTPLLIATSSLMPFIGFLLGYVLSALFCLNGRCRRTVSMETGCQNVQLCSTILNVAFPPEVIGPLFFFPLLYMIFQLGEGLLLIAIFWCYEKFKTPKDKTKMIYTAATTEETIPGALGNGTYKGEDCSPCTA
Assay: [3H]-TCA uptake assay (NTCP inhibition)
Type: cell-based
Outline: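 Read-out is liquid scintillation counting of Triton X-100 lysates after 15 min, 37° C uptake of 1 μM [3H]-taurocholate in Na+ Ringer's buffer (145 mM Na). Beforehand, PTH and HepG2-NTCP cells had 24 h in PMM for NTCP induction and 2 h of compound or DMSO treatment.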

[1] = given as a range, assay not given
[2] = IC50, given as a range, marked * (asterisk not explained)

Row | SMILES | IC50 [1] [nM] | IC50 [2] [nM] | also measured
1 | CCC1NC(=O)C(C2OC(SCc3ccc(Cl)cc3)CC2C)N(C)C(=O)C(C(C)C)N(C)C(=O)C(CC(C)C)N(C)C(=O)C(CC(C)C)N(C)C(=O)C(C)NC(=O)C(C)NC(=O)C(CC(C)C)N(C)C(=O)C(C(C)C)NC(=O)C(CC(C)C)N(C)C(=O)CN(C)C1=O (centres unmarked) [Compound 86A-s] |  |  | IC50 (IC50, given as a range, assay not given): 1000 to 100000 nM
2 | CCC1NC(=O)C(C2OC(Sc3cccc(OCc4ccc(CN(C)C)cc4)c3)CC2C)N(C)C(=O)C(C(C)C)N(C)C(=O)C(CC(C)C)N(C)C(=O)C(CC(C)C)N(C)C(=O)C(C)NC(=O)C(C)NC(=O)C(CC(C)C)N(C)C(=O)C(C(C)C)NC(=O)C(CC(C)C)N(C)C(=O)CN(C)C1=O [Compound 13A, [2-((2R,3R)-5-(3-(4-((dimethylamino)methyl)benzyloxy)phenylthio)-3-methyltetrahydrofuran-2-yl)-2-(methylamino)acetic acid]^1-cyclosporin A] | 1 to 1000 |  | 
3 | CCC1NC(=O)C(C2OC(Oc3cccc(OCc4cccs4)c3)CC2C)N(C)C(=O)C(C(C)C)N(C)C(=O)C(CC(C)C)N(C)C(=O)C(CC(C)C)N(C)C(=O)C(C)NC(=O)C(C)NC(=O)C(CC(C)C)N(C)C(=O)C(C(C)C)NC(=O)C(CC(C)C)N(C)C(=O)CN(C)C1=O (centres unmarked) [Compound 69-o] |  | 1000 to 100000 | 
4 | CCC1NC(=O)C(C2OC(SCc3c(Cl)cccc3Cl)CC2C)N(C)C(=O)C(C(C)C)N(C)C(=O)C(CC(C)C)N(C)C(=O)C(CC(C)C)N(C)C(=O)C(C)NC(=O)C(C)NC(=O)C(CC(C)C)N(C)C(=O)C(C(C)C)NC(=O)C(CC(C)C)N(C)C(=O)CN(C)C1=O (centres unmarked) [Compound 90A-s] |  | 1000 to 100000 | 
5 | CCC1NC(=O)C(C2OC(Sc3ccc(Cl)c(OCc4ccccc4)c3)CC2C)N(C)C(=O)C(C(C)C)N(C)C(=O)C(CC(C)C)N(C)C(=O)C(CC(C)C)N(C)C(=O)C(C)NC(=O)C(C)NC(=O)C(CC(C)C)N(C)C(=O)C(C(C)C)NC(=O)C(CC(C)C)N(C)C(=O)CN(C)C1=O [Compound 44A, [2-((2R,3R)-5-(3-(benzyloxy)-4-chlorophenylthio)-3-methyltetrahydrofuran-2-yl)-2-(methylamino)acetic acid]^1-cyclosporin A] | 1 to 1000 |  | 
6 | CCC1NC(=O)C(C2OC(OCc3cccc(N4CCOCC4)c3)CC2C)N(C)C(=O)C(C(C)C)N(C)C(=O)C(CC(C)C)N(C)C(=O)C(CC(C)C)N(C)C(=O)C(C)NC(=O)C(C)NC(=O)C(CC(C)C)N(C)C(=O)C(C(C)C)NC(=O)C(CC(C)C)N(C)C(=O)CN(C)C1=O (centres unmarked) [Compound 95] |  | 1000 to 100000 | 
7 | CCC1NC(=O)C(C2OC(OCc3ccc(Cl)cc3)CC2C)N(C)C(=O)C(C(C)C)N(C)C(=O)C(CC(C)C)N(C)C(=O)C(CC(C)C)N(C)C(=O)C(C)NC(=O)C(C)NC(=O)C(CC(C)C)N(C)C(=O)C(C(C)C)NC(=O)C(CC(C)C)N(C)C(=O)CN(C)C1=O [Compound 86A, [2-((2R,3R)-5-(4-chlorobenzyloxy)-3-methyltetrahydrofuran-2-yl)-2-(methylamino)acetic acid]^1-cyclosporin A] | 1 to 1000 |  | 
8 | CCC1NC(=O)C(C2OC(Oc3cccc(OCc4cccnc4)c3)CC2C)N(C)C(=O)C(C(C)C)N(C)C(=O)C(CC(C)C)N(C)C(=O)C(CC(C)C)N(C)C(=O)C(C)NC(=O)C(C)NC(=O)C(CC(C)C)N(C)C(=O)C(C(C)C)NC(=O)C(CC(C)C)N(C)C(=O)CN(C)C1=O (centres unmarked) [Compound 53A-o] |  | 10000 | 
9 | CCC1NC(=O)C(C2OC(Sc3ccc(Cl)c(OCC4CCOCC4)c3)CC2C)N(C)C(=O)C(C(C)C)N(C)C(=O)C(CC(C)C)N(C)C(=O)C(CC(C)C)N(C)C(=O)C(C)NC(=O)C(C)NC(=O)C(CC(C)C)N(C)C(=O)C(C(C)C)NC(=O)C(CC(C)C)N(C)C(=O)CN(C)C1=O [Compound 43A, [2-((2R,3R)-5-(4-chloro-3-((tetrahydro-2H-pyran-4-yl)methoxy)phenylthio)-3-methyltetrahydrofuran-2-yl)-2-(methylamino)acetic acid]^1-cyclosporin A] | 1 to 1000 |  | 
10 | CCC1NC(=O)C(C2OC(Sc3cc(Cl)cc(OC)c3)CC2C)N(C)C(=O)C(C(C)C)N(C)C(=O)C(CC(C)C)N(C)C(=O)C(CC(C)C)N(C)C(=O)C(C)NC(=O)C(C)NC(=O)C(CC(C)C)N(C)C(=O)C(C(C)C)NC(=O)C(CC(C)C)N(C)C(=O)CN(C)C1=O [Compound 59A, [2-((2R,3R)-5-(3-chloro-5-methoxyphenylthio)-3-methyltetrahydrofuran-2-yl)-2-(methylamino)acetic acid]^1-cyclosporin A] | 1 to 1000 |  | 
11 | CCC1NC(=O)C(C2OC(Oc3cccc(OCc4cccnc4)c3)CC2C)N(C)C(=O)C(C(C)C)N(C)C(=O)C(CC(C)C)N(C)C(=O)C(CC(C)C)N(C)C(=O)C(C)NC(=O)C(C)NC(=O)C(CC(C)C)N(C)C(=O)C(C(C)C)NC(=O)C(CC(C)C)N(C)C(=O)CN(C)C1=O (centres unmarked) [53A + B(1:1.5)-o] |  | 1000 to 100000 | 
12 | CCC1NC(=O)C(C2OC(Oc3cc(Cl)cc(OC)c3)CC2C)N(C)C(=O)C(C(C)C)N(C)C(=O)C(CC(C)C)N(C)C(=O)C(CC(C)C)N(C)C(=O)C(C)NC(=O)C(C)NC(=O)C(CC(C)C)N(C)C(=O)C(C(C)C)NC(=O)C(CC(C)C)N(C)C(=O)CN(C)C1=O (centres unmarked) [Compound 59A-o] |  | 1000 to 100000 | 
13 | CCCN(C)c1cccc(SC2CC(C)C(C3C(=O)NC(CC)C(=O)N(C)CC(=O)N(C)C(CC(C)C)C(=O)NC(C(C)C)C(=O)N(C)C(CC(C)C)C(=O)NC(C)C(=O)NC(C)C(=O)N(C)C(CC(C)C)C(=O)N(C)C(CC(C)C)C(=O)N(C)C(C(C)C)C(=O)N3C)O2)c1 [Compound 50A, [2-((2R,3R)-3-methyl-5-(3-(methyl(propyl)amino)phenylthio)tetrahydrofuran-2-yl)-2-(methylamino)acetic acid]^1-cyclosporin A] | 1 to 1000 |  | 
14 | CCC1NC(=O)C(C2OC(Oc3cccc(OCC4CCOCC4)c3)CC2C)N(C)C(=O)C(C(C)C)N(C)C(=O)C(CC(C)C)N(C)C(=O)C(CC(C)C)N(C)C(=O)C(C)NC(=O)C(C)NC(=O)C(CC(C)C)N(C)C(=O)C(C(C)C)NC(=O)C(CC(C)C)N(C)C(=O)CN(C)C1=O (centres unmarked) [Compound 33A-o] |  | 1000 to 100000 | 
15 | CCC1NC(=O)C(C2OC(Sc3cccc(OCCN(C)C)c3)CC2C)N(C)C(=O)C(C(C)C)N(C)C(=O)C(CC(C)C)N(C)C(=O)C(CC(C)C)N(C)C(=O)C(C)NC(=O)C(C)NC(=O)C(CC(C)C)N(C)C(=O)C(C(C)C)NC(=O)C(CC(C)C)N(C)C(=O)CN(C)C1=O [Compound 14A, [2-((2R,3R)-5-(3-(2-(dimethylamino)ethoxy)phenylthio)-3-methyltetrahydrofuran-2-yl)-2-(methylamino)acetic acid]^1-cyclosporin A] |  | 1000 to 100000 | 
16 | CCC1NC(=O)C(C2OC(Oc3cc(OC)cc(OC)c3)CC2C)N(C)C(=O)C(C(C)C)N(C)C(=O)C(CC(C)C)N(C)C(=O)C(CC(C)C)N(C)C(=O)C(C)NC(=O)C(C)NC(=O)C(CC(C)C)N(C)C(=O)C(C(C)C)NC(=O)C(CC(C)C)N(C)C(=O)CN(C)C1=O [Compound 38A-o, [2-((2R,3R)-5-(3,5-dimethoxphenoxy)-3-methyltetrahydrofuran-2-yl)-2-(methylamino)acetic acid]^1-cyclosporin A] |  | 1000 to 100000 | 
17 | CCC1NC(=O)C(C2OC(SCc3cc(Cl)ccc3Cl)CC2C)N(C)C(=O)C(C(C)C)N(C)C(=O)C(CC(C)C)N(C)C(=O)C(CC(C)C)N(C)C(=O)C(C)NC(=O)C(C)NC(=O)C(CC(C)C)N(C)C(=O)C(C(C)C)NC(=O)C(CC(C)C)N(C)C(=O)CN(C)C1=O (centres unmarked) [Compound 98A-s] |  | 1000 to 100000 | 
18 | CCC1NC(=O)C(C2OC(SCc3ccccc3Cl)CC2C)N(C)C(=O)C(C(C)C)N(C)C(=O)C(CC(C)C)N(C)C(=O)C(CC(C)C)N(C)C(=O)C(C)NC(=O)C(C)NC(=O)C(CC(C)C)N(C)C(=O)C(C(C)C)NC(=O)C(CC(C)C)N(C)C(=O)CN(C)C1=O (centres unmarked) [Compound 84A-s] |  | 1000 to 100000 | 
19 | CCC1NC(=O)C(C2OC(OCc3ccc(Cl)c(Cl)c3)CC2C)N(C)C(=O)C(C(C)C)N(C)C(=O)C(CC(C)C)N(C)C(=O)C(CC(C)C)N(C)C(=O)C(C)NC(=O)C(C)NC(=O)C(CC(C)C)N(C)C(=O)C(C(C)C)NC(=O)C(CC(C)C)N(C)C(=O)CN(C)C1=O [Compound 94B, [2-((2R,3R)-5-(3,4-dichlorobenzyloxy)-3-methyltetrahydrofuran-2-yl)-2-(methylamino)acetic acid]^1-cyclosporin A] | 1 to 1000 |  | 
20 | CCC1NC(=O)C(C2OC(OCc3cc(Cl)c(F)cc3Cl)CC2C)N(C)C(=O)C(C(C)C)N(C)C(=O)C(CC(C)C)N(C)C(=O)C(CC(C)C)N(C)C(=O)C(C)NC(=O)C(C)NC(=O)C(CC(C)C)N(C)C(=O)C(C(C)C)NC(=O)C(CC(C)C)N(C)C(=O)CN(C)C1=O (centres unmarked) [Compound 103] |  | 1000 to 100000 | 
21 | CCC1NC(=O)C(C2OC(SCc3cc(F)c(Cl)cc3Cl)CC2C)N(C)C(=O)C(C(C)C)N(C)C(=O)C(CC(C)C)N(C)C(=O)C(CC(C)C)N(C)C(=O)C(C)NC(=O)C(C)NC(=O)C(CC(C)C)N(C)C(=O)C(C(C)C)NC(=O)C(CC(C)C)N(C)C(=O)CN(C)C1=O (centres unmarked) [Compound 101A-s] |  | 1000 to 100000 | 
22 | CCC1NC(=O)C(C2OC(Oc3cccc(OCc4ccc(F)cc4)c3)CC2C)N(C)C(=O)C(C(C)C)N(C)C(=O)C(CC(C)C)N(C)C(=O)C(CC(C)C)N(C)C(=O)C(C)NC(=O)C(C)NC(=O)C(CC(C)C)N(C)C(=O)C(C(C)C)NC(=O)C(CC(C)C)N(C)C(=O)CN(C)C1=O (centres unmarked) [Compound 21A-o] |  | 1000 to 100000 | 
23 | CCC1NC(=O)C(C2OC(Oc3cccc(OCc4ccc5c(c4)OCO5)c3)CC2C)N(C)C(=O)C(C(C)C)N(C)C(=O)C(CC(C)C)N(C)C(=O)C(CC(C)C)N(C)C(=O)C(C)NC(=O)C(C)NC(=O)C(CC(C)C)N(C)C(=O)C(C(C)C)NC(=O)C(CC(C)C)N(C)C(=O)CN(C)C1=O (centres unmarked) [Compound 18A-o] |  |  | IC50 (given as a range, marked * (asterisk not explained)): 1000 to 100000 nM
